From patent US8124610B2, “Sodium channel inhibitors” (Icagen Inc., priority 2007, dated 2012)
Where two headings read alike, the source gives them in different places.

What was measured:
hSCN9A = target: T1, hSCN9A (Homo sapiens, UniProt Q15858); assay: Whole-cell patch-clamp electrophysiology (conventional or PatchXpress), HEK cells expressing hSCN9A, estimated IC-50; type: cell-based; settings: read-out: SCN9A EIC-50
T1 construct: expressed in transfected cells
Outline: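 Stably transfected HEK cells recorded by whole-cell voltage clamp (manual or PatchXpress) at 22–24 °C in pH 7.4 HEPES-buffered extracellular solution. Cells held at the empirically determined inactivation V1/2 after an 8 s prepulse, then stepped to 0 mV for 20 ms; % inhibition from current amplitude before vs after compound.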

hSCN3A = target: T2, hSCN3A (Homo sapiens, UniProt Q9NY46); assay: Whole-cell patch-clamp electrophysiology (conventional or PatchXpress), HEK cells expressing hSCN3A, estimated IC-50; type: cell-based; settings: read-out: SCN3A EIC-50
T2 construct: expressed in transfected cells
Protocol: Human Embryonic Kidney (HEK) cells were transfected with hSCN3A or hSCN9A constructs using lipofectamine reagent (Invitrogen), using standard techniques. Cells stably expressing the hSCN3A or hSCN9A constructs were identified by their resistance to G-418 (400 μg/ml). Clones were screened for expression using the whole-cell voltage-clamp technique. HEK cells stably transfected with hSCN3A or hSCN9A were maintained in DMEM medium supplemented with 10% heat-inactivated fetal bovine serum and 400 μg/ml G418 sulfate in an incubator at 37° C. with a humidified atmosphere of 10% CO2. For HTS, cells were harvested from flasks by trypsinization and replated in an appropriate multi-well plate (typically 96 or 384 wells/plate) such that confluence would be achieved within 24 hours of plating. For electrophysiological studies, cells were removed from the culture flask by brief trypsinization and replated at low density onto glass cover slips. Cells were typically used for electrophysiological experiments within 24 to 72 h after plating. Cover slips containing HEK cells expressing hSCN3A or hSCN9A were placed in a bath on the stage of an inverted microscope and perfused (approximately 1 ml/min) with extracellular solution of the following composition: 138 mM NaCl, 2 mM CaCl2, 5.4 mM KCl, 1 mM MgCl2, 10 mM glucose, and 10 mM HEPES, pH 7.4, with NaOH. […] All recordings were made at room temperature (22-24° C.) using AXOPATCH 200B amplifiers and PCLAMP software (Axon Instruments, Burlingame, Calif.) or PatchXpress 7000 hardware and associated software (Axon Instruments, Burlingame, Calif.). hSCN3A or hSCN9A currents in HEK cells were measured using the whole-cell configuration of the patch-clamp technique (Hamill et al., 1981). […] As a result, voltage errors were negligible and no correction was applied. Current records were acquired at 20 to 50 KHz and filtered at 5 to 10 KHz. HEK cells stably transfected with hSCN3A or hSCN9A were viewed under Hoffman contrast optics and placed in front of an array of flow pipes emitting either control or compound-containing extracellular solutions. All compounds were dissolved in dimethyl sulfoxide to make 10 mM stock solutions, which were then diluted into extracellular solution to attain the final concentrations desired. […] The voltage-dependence of inactivation was determined by applying a series of depolarizing prepulses (8 sec long in 10 mV increments) from a negative holding potential. The voltage was then immediately stepped to 0 mV to assess the magnitude of the sodium current. Currents elicited at 0 mV were plotted as a function of prepulse potential to allow estimation of the voltage midpoint of inactivation (V1/2). Cells were then voltage clamped at the empirically determined V1/2. Compounds were tested for their ability to inhibit hSCN3A or hSCN9A sodium channels by activating the channel with a 20 msec voltage step to 0 mV following an 8 second conditioning prepulse to the empirically determined V1-2 (Table B). Compound effect (% inhibition) was determined by difference in current amplitude before and after application of test compounds. […] In some cases electrophysiological assays were conducted with PatchXpress 7000 hardware and associated software (Molecular Devices Corp) (Table B). All assay buffers and solutions were identical to those used in conventional whole-cell voltage clamp experiments described above. hSCN3A or hSCN9A containing cells were grown as above to 50%-80% confluency and harvested by trypsinization. Trypsinized cells were washed and resuspended in extracellular buffer at a concentration of 1×10^6 cells/ml. The onboard liquid handling facility of the PatchXpress was used for dispensing cells and application of test compounds. Determination of the voltage midpoint of inactivation was as described for conventional whole-cell recordings. Cells were then voltage-clamped to the empirically determined V1/2 and current was activated by a 20 msec voltage step to 0 mV.

[1] = estimated IC-50, HEK cells expressing hSCN9A, class symbols or bounds
[2] = estimated IC-50, HEK cells expressing hSCN3A, class symbols or bounds
[3] = Table V, estimated IC-50 from single point electrophysiology, cells clamped at V1/2

T2 sequence (Q9NY46 whole entry): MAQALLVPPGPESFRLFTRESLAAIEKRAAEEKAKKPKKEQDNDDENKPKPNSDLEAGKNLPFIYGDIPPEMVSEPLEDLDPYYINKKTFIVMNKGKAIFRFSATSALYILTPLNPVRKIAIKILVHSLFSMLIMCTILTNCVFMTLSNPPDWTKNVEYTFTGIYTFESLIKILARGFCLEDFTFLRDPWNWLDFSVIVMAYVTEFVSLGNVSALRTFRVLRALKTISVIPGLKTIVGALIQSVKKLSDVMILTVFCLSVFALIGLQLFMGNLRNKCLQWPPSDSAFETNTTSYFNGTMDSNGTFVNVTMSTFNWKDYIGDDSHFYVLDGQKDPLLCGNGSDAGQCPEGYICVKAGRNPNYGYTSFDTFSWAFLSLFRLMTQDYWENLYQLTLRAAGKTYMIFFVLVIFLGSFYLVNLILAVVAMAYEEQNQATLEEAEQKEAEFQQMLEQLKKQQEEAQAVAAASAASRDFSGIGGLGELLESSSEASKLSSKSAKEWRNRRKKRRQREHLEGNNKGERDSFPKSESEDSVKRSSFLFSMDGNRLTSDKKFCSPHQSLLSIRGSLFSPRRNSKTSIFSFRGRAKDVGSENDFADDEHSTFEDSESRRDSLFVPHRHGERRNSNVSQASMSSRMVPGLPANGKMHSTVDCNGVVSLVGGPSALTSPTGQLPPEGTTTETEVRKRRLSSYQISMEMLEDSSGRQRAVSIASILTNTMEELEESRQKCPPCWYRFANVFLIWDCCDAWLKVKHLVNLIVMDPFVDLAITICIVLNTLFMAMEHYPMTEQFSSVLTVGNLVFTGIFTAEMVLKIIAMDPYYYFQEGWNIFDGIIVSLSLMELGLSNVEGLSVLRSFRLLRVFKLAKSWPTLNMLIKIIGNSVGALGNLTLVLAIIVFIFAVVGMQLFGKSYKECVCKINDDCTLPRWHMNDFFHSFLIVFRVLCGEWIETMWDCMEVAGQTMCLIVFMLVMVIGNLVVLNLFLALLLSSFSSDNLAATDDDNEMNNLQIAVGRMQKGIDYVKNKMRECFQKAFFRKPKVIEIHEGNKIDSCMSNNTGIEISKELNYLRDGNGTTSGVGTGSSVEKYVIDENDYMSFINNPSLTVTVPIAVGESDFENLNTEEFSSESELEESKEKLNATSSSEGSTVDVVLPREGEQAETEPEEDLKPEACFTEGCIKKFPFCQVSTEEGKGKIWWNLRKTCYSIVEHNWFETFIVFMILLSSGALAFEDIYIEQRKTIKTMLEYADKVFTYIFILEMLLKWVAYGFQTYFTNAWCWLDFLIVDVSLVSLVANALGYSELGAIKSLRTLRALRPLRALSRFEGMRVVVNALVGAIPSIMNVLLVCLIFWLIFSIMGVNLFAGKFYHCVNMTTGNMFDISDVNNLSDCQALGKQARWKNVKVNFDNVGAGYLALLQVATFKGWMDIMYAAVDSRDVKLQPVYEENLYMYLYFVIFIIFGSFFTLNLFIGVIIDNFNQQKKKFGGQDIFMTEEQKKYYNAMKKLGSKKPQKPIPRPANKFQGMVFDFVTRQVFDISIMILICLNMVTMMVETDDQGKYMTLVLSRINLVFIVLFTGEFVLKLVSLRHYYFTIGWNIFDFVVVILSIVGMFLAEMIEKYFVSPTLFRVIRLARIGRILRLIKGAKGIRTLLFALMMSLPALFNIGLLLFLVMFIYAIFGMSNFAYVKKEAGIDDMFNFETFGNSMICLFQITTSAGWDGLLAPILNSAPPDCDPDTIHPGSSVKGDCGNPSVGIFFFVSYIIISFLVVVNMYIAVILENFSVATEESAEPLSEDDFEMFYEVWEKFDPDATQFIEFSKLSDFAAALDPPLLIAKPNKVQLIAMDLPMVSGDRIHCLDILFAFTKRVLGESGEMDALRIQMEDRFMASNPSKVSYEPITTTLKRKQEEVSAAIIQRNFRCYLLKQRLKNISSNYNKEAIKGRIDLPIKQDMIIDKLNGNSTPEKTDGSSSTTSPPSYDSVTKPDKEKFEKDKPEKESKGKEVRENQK
T1 sequence (Q15858 whole entry): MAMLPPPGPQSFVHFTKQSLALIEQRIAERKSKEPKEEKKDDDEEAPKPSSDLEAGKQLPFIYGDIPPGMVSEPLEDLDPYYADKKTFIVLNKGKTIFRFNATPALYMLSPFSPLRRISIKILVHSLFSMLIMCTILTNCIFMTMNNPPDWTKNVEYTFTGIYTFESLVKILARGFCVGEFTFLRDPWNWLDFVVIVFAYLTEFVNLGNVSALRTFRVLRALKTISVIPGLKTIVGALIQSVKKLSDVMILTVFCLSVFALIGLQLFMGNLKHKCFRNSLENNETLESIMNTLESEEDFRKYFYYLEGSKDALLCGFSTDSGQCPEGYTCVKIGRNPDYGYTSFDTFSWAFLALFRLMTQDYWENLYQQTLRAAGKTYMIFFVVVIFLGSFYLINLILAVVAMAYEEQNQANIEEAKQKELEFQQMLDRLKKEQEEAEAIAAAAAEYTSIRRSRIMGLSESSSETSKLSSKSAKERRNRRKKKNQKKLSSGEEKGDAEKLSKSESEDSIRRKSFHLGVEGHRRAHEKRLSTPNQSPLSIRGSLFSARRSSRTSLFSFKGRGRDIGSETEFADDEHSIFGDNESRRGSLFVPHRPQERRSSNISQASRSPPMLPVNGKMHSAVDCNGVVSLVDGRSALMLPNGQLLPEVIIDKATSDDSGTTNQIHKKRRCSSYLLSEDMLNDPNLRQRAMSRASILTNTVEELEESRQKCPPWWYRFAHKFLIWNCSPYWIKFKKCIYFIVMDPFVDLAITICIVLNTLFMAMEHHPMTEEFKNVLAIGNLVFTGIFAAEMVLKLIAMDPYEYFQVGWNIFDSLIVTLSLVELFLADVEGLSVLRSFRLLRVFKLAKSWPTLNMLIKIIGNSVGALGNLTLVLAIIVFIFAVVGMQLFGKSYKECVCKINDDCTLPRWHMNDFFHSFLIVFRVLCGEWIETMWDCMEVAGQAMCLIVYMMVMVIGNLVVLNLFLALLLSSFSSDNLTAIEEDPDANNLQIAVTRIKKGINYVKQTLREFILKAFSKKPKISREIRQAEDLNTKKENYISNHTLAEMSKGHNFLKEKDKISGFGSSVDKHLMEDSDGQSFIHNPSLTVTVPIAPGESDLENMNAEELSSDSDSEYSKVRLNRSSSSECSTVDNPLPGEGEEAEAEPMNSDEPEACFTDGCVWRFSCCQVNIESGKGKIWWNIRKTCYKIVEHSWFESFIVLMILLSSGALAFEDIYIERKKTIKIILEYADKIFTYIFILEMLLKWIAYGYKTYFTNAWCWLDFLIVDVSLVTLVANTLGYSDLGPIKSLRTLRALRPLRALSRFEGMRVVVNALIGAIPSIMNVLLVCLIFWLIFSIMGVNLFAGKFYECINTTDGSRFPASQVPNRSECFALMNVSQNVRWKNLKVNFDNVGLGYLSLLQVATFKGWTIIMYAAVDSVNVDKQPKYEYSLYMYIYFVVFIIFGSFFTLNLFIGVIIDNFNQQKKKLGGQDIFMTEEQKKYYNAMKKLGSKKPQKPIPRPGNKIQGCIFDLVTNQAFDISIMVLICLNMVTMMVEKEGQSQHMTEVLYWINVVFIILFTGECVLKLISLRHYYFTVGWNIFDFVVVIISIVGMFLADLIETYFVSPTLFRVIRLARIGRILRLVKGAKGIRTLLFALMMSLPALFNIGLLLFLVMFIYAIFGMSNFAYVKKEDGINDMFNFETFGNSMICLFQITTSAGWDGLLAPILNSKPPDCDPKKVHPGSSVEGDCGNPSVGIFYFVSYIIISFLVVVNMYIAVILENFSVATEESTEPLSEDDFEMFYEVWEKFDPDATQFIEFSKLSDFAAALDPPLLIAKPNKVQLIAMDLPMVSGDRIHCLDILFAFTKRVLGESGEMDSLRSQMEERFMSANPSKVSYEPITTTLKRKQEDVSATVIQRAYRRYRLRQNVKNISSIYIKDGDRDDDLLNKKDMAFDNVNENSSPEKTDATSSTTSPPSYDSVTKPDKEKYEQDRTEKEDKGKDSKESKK

Row | Structure (SMILES) | IC50 (hSCN9A; [1]) [nM] | IC50 (hSCN3A; [2]) [nM] | IC50 (hSCN9A; [3]) [nM] | IC50 (hSCN3A; [3]) [nM]
1 | O=S(=O)(Nc1nccs1)c1ccc(Nc2nc(COc3ccc(Cl)cc3)cs2)cc1 [Compound 52, 4-(4-((4-chlorophenoxy)methyl)thiazol-2-ylamino)-N-(thiazol-2-yl)benzenesulfonamide] | < 2000 | < 2000 |  | 
2 | O=S(=O)(Nc1ccccn1)c1ccc(Nc2nc(Cc3ccc(Cl)cc3)cs2)cc1 [Compound 103, 4-(4-(4-chlorobenzyl)thiazol-2-ylamino)-N-(pyridin-2-yl)benzenesulfonamide] | > 1000 | > 10000 |  | 
3 | CC(C)(C)n1nc(Cc2ccc(Cl)cc2)cc1Nc1ccc(S(=O)(=O)Nc2ccccn2)cc1 [Compound 110, 4-(1-tert-butyl-3-(4-chlorobenzyl)-1H-pyrazol-5-ylamino)-N-(pyridin-2-yl)benzenesulfonamide] | > 10000 | < 2000 |  | 
4 | O=S(=O)(Nc1nccs1)c1ccc(Nc2nccc(OCc3ccccc3F)n2)cc1 [Compound 54, 4-(4-(2-fluorobenzyloxy)pyrimidin-2-ylamino)-N-(thiazol-2-yl)benzenesulfonamide] | > 1000 | 2000 to 10000 |  | 
5 | CN(CCc1ccccc1)Cc1csc(Nc2ccc(S(=O)(=O)Nc3nccs3)cc2)n1 [Compound 67, 4-(4-((methyl(phenethyl)amino)methyl)thiazol-2-ylamino)-N-(thiazol-2-yl)benzenesulfonamide] | 2000 to 10000 | < 2000 |  | 
6 | CC(C)(C)c1cc(Nc2ccc(S(=O)(=O)Nc3nccs3)c(F)c2)n(-c2ccccc2)n1 [Compound 156, 4-(3-tert-butyl-1-phenyl-1H-pyrazol-5-ylamino)-2-fluoro-N-(thiazol-2-yl)benzenesulfonamide] | < 2000 | < 2000 |  | 
7 | NC(=O)c1cnn(-c2ccc(F)c(Cl)c2)c1Nc1ccc(S(=O)(=O)Nc2nccs2)cc1 [Compound 112, 1-(3-chloro-4-fluorophenyl)-5-(4-(N-thiazol-2-ylsulfamoyl)phenylamino)-1H-pyrazole-4-carboxamide] | > 1000 | > 1000 |  | 
8 | O=S(=O)(Nc1nccs1)c1ccc(Nc2nc(-c3ccc(C(F)(F)F)cc3F)cs2)cc1 [Compound 90, 4-(4-(2-fluoro-4-(trifluoromethyl)phenyl)thiazol-2-ylamino)-N-(thiazol-2-yl)benzenesulfonamide] | > 1000 | < 2000 |  | 
9 | N#Cc1cc(Nc2ccn(Cc3ccc(Cl)cc3)n2)ccc1S(=O)(=O)Nc1nccs1 [Compound 264, 4-(1-(4-chlorobenzyl)-1H-pyrazol-3-ylamino)-2-cyano-N-(thiazol-2-yl)benzenesulfonamide] | < 2000 | < 2000 |  | 
10 | O=S(=O)(Nc1nccs1)c1ccc(Nc2nc(CCC3CCCC3)cs2)cc1 [Compound 51, 4-(4-(2-cyclopentylethyl)thiazol-2-ylamino)-N-(thiazol-2-yl)benzenesulfonamide] | 2000 to 10000 | < 2000 |  | 
11 | O=S(=O)(Nc1nccs1)c1ccc(Nc2nc(CCCOc3ccccc3)cs2)cc1 [Compound 50, 4-(4-(3-phenoxypropyl)thiazol-2-ylamino)-N-(thiazol-2-yl)benzenesulfonamide] | 2000 to 10000 | < 2000 |  | 
12 | Cn1nc(Cc2ccc(Cl)cc2)cc1Nc1ccc(S(=O)(=O)Nc2nccs2)cc1 [Compound 21, 4-(3-(4-Chlorobenzyl)-1-methyl-1H-pyrazol-5-ylamino)-N-(thiazol-2-yl)benzenesulfonamide] |  |  | < 2000 | < 2000
13 | COc1ccc(C(=O)Cn2ncc3cc(S(=O)(=O)Nc4nccs4)ccc32)c(OC)c1 [Compound 276, 1-(2-(2,4-dimethoxyphenyl)-2-oxoethyl)-N-(thiazol-2-yl)-1H-indazole-5-sulfonamide] | > 1000 | < 2000 |  | 
14 | Cn1c(Nc2ccc(S(=O)(=O)Nc3nccs3)cc2)nc2cc(Cl)ccc21 [Compound 100, 4-(5-chloro-1-methyl-1H-benzo[d]imidazol-2-ylamino)-N-(thiazol-2-yl)benzenesulfonamide] | 2000 to 10000 | < 2000 |  | 
15 | CC(C)(C)c1csc(Nc2ccc(S(=O)(=O)Nc3nccs3)cn2)n1 [Compound 106, 6-(4-tert-butylthiazol-2-ylamino)-N-(thiazol-2-yl)pyridine-3-sulfonamide] | > 1000 | 2000 to 10000 |  | 
16 | Cc1cc(Nc2ccc(S(=O)(=O)Nc3nccs3)cc2)n(-c2ccccc2)n1 [Compound 20, 4-(3-methyl-1-phenyl-1H-pyrazol-5-ylamino)-N-(thiazol-2-yl)benzenesulfonamide] |  |  | 2000 to 10000 | < 2000
17 | Cn1c(Nc2ccc(S(=O)(=O)Nc3nccs3)cc2)nc2ccc(Cl)cc21 [Compound 101, 4-(6-chloro-1-methyl-1H-benzo[d]imidazol-2-ylamino)-N-(thiazol-2-yl)benzenesulfonamide] | 2000 to 10000 | < 2000 |  | 
18 | O=S(=O)(Nc1nccs1)c1ccc(Nc2nc(C(F)(F)F)cs2)cc1 [Compound 83, N-(thiazol-2-yl)-4-(4-(trifluoromethyl)thiazol-2-ylamino)benzenesulfonamide] | 2000 to 10000 | < 2000 |  | 
19 | O=S(=O)(Nc1nccs1)c1ccc(Nc2nc(CCCOc3ccc(Cl)cc3)cs2)cc1 [Compound 94, 4-(4-(3-(4-chlorophenoxy)propyl)thiazol-2-ylamino)-N-(thiazol-2-yl)benzenesulfonamide] | < 2000 | < 2000 |  | 
20 | O=S(=O)(Nc1nccs1)c1ccc(Nc2nc(CC(c3ccccc3)c3ccccc3)cs2)cc1 [Compound 49, 4-(4-(2,2-diphenylethyl)thiazol-2-ylamino)-N-(thiazol-2-yl)benzenesulfonamide] | < 2000 | < 2000 |  | 
21 | CN(c1ccc(S(=O)(=O)Nc2nccs2)c(F)c1)c1nc(Cc2ccc(Cl)cc2)cs1 [Compound 6, 4-[4-(4-Chloro-benzyl)-thiazol-2-yl]-methyl-amino-2-fluoro-N-thiazol-2-yl-benzenesulfonamide] |  |  | 2000 to 10000 | 2000 to 10000
22 | Cc1cc(Nc2ccc(S(=O)(=O)Nc3nccs3)cc2F)n(-c2ccccc2)n1 [Compound 35, 3-fluoro-4-(3-methyl-1-phenyl-1H-pyrazol-5-ylamino)-N-(thiazol-2-yl)benzenesulfonamide] |  |  | < 2000 | < 2000
23 | Cc1cc(NS(=O)(=O)c2ccc(Nc3ccnc(OCc4ccc(C(F)(F)F)cc4)n3)cc2)no1 [Compound 88, N-(5-methylisoxazol-3-yl)-4-(2-(4-(trifluoromethyl)benzyloxy)pyrimidin-4-ylamino)benzenesulfonamide] |  | 2000 to 10000 |  | 
24 | O=S(=O)(Nc1nccs1)c1ccc(Nc2nc(CCCCl)cs2)cc1 [Compound 59, 4-(4-(3-chloropropyl)thiazol-2-ylamino)-N-(thiazol-2-yl)benzenesulfonamide] |  | < 2000 |  | 
25 | Cc1cc(NS(=O)(=O)c2ccc(Nc3nccc(OCc4ccc(C(F)(F)F)cc4)n3)cc2)no1 [Compound 87, N-(5-methylisoxazol-3-yl)-4-(4-(4-(trifluoromethyl)benzyloxy)pyrimidin-2-ylamino)benzenesulfonamide] |  | > 1000 |  | 
26 | COc1ccnc(Nc2ccc(S(=O)(=O)Nc3cc(C)on3)cc2)n1 [Compound 86, 4-(4-methoxypyrimidin-2-ylamino)-N-(5-methylisoxazol-3-yl)benzenesulfonamide] |  | > 1000 |  | 
